The values that follow come from paper PMC3060404 (Chembiochem : a European journal of chemical biology, 2010).

Molecules are shown by their SMILES. A value given as a limit tells only on which side of the number the result lay.

Format in all cases: biochemical
The target of one experiment is PRMT6 (Homo sapiens, UniProt Q96LA8). Nature of the experiment: PRMT6 IC50 assay. Particulars: read-out: IC50 for PRMT6; 500 nM PRMT6, 15 µM 14C-methyl-SAM, 30 µM histone H3, 37 °C.
The next experiment concerns the target PRMT1 (Homo sapiens, UniProt Q99873). Nature of the experiment: PRMT1 IC50 assay. Particulars: read-out: IC50 for PRMT1; 200 nM PRMT1, 15 µM 14C-methyl-SAM, 25 µM AcH4-21, 37 °C.
For the next experiment, the system named is CARM1/PRMT4. Nature of the experiment: CARM1/PRMT4 IC50 assay. Particulars: read-out: IC50 for PRMT4; 150 nM CARM1/PRMT4, 15 µM 14C-methyl-SAM, 10 µM histone H3, 30 °C.
The next experiment has as its system PRMT3. Nature of the experiment: PRMT3 IC50 assay. Particulars: read-out: IC50 for PRMT3; 500 nM PRMT3, 15 µM 14C-methyl-SAM, 250 µM RGG, 37 °C.

Sequence of PRMT6 (Q96LA8 whole entry, species assumed): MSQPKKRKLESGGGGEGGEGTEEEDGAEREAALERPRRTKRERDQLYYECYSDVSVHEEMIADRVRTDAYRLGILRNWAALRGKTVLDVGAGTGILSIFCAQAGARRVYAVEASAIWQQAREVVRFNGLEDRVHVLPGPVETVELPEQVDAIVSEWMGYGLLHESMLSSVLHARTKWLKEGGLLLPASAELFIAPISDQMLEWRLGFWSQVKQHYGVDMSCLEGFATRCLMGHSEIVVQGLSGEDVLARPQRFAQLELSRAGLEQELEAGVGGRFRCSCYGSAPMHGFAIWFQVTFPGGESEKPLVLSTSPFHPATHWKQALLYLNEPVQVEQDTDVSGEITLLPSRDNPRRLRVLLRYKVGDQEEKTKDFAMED
Sequence of PRMT1 (Q99873 1-353 isoform Q99873-3): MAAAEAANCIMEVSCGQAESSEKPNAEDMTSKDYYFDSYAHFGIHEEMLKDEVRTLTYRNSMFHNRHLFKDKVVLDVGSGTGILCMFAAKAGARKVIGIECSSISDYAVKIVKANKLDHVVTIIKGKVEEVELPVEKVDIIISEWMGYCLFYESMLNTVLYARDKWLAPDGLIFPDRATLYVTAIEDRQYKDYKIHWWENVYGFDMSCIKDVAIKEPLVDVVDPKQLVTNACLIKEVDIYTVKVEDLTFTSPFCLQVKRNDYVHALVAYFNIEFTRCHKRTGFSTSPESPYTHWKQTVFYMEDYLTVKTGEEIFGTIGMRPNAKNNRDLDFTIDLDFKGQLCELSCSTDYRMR

Usually IC50 stands for the concentration needed to halve the response being measured. Turning to `NC(=O)[C@H](CCCN=C(N)CF)NC(=O)c1ccccc1` [F-amidine], the IC50 on PRMT6, on PRMT1, with CARM1/PRMT4 and with PRMT3 was more than 500 µM throughout.
For `NC(=O)[C@H](CCCN=C(N)CCl)NC(=O)c1ccccc1` [Cl-amidine], the concentration for half-maximal inhibition (IC50) on PRMT6 was more than 500 µM; on PRMT1, 225 ± 10 µM; with CARM1/PRMT4, more than 500 µM; in the experiment with PRMT3, more than 500 µM.
